Source: PMC10137938 (Foods, 2023)
Residues, ends and D or L forms follow the SMILES beside them.

Molecular target: Angiotensin-converting enzyme (ACE) (UniProt P12821)
Assay: not given
Details: not given

Sequence of Angiotensin-converting enzyme (ACE) (P12821 30-1306): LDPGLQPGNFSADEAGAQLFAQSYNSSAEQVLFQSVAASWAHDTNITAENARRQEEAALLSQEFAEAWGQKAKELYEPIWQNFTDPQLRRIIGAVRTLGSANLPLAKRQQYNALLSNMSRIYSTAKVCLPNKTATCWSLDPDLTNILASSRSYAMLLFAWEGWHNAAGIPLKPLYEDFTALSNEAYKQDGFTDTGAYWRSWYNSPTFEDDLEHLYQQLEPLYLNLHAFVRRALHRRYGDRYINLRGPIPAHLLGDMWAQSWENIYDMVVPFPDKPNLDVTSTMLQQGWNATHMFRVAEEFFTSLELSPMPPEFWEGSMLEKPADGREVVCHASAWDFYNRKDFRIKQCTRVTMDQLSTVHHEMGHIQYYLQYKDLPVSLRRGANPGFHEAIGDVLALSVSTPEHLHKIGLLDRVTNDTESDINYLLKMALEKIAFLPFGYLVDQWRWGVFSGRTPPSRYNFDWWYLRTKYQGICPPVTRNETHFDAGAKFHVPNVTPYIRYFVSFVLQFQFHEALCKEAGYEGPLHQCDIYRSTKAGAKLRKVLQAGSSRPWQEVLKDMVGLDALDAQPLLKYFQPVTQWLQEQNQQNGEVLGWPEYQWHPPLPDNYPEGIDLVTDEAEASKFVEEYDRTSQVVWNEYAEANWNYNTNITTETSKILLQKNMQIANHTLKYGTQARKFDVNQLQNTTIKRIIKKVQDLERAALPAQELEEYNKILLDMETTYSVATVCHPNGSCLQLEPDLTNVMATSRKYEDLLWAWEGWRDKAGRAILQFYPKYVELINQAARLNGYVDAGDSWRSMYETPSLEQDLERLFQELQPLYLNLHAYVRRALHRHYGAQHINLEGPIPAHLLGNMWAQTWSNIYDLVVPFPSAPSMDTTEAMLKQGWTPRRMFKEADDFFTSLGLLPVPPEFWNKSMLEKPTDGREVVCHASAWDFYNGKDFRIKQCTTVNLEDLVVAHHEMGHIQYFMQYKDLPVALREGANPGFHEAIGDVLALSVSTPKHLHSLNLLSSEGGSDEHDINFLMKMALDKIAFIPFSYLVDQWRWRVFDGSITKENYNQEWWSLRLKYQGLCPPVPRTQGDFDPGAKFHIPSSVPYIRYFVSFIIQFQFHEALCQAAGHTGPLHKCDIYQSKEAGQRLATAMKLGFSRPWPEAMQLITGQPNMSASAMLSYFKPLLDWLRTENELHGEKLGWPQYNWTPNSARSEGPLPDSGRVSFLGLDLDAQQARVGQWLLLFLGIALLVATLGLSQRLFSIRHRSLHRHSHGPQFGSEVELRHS

Row | Molecule | IC50 of inhibition of ACE activity (hydrolysis of HHL to hippuric acid, HPLC at 228 nm, 37 °C) [µM]
1 | tetrapeptide RRYQ | 115
2 | tetrapeptide WFRV | 31.8
3 | YYWK [tetrapeptide YYWK] | 20
4 | WWTY [tetrapeptide WWTY] | 28.5
5 | WRQF [tetrapeptide WRQF] | 29.6
6 | WWNW [tetrapeptide WWNW] | 26.4
7 | WFSW [tetrapeptide WFSW] | 148
8 | WWDW [tetrapeptide WWDW] | 36.8
9 | WRFF [tetrapeptide WRFF] | 141
10 | RWWD [tetrapeptide RWWD] | 129

Molecular target: ACE (Homo sapiens, UniProt P12821)
Sequence (P12821 30-1306, species assumed): as the sequence (P12821 30-1306) above
Assay: Assay of ACE inhibitory activity (HHL hydrolysis, HPLC of hippuric acid)
Type: biochemical
Details: in vitro; substrate HHL, borate buffer, 37 °C, 5 min coincubation with HHL, 30 min reaction, HCl stop; 7 concentrations; HPLC C18 at 228 nm; GraphPad Prism 7.0
Experimental: IC50 refers to the semi-inhibitory concentration; here, the principle of in vitro IC50 determination of the potential ACE inhibitory peptide is that ACE can hydrolyse HHL into […] and dipeptide. HHL and tetrapeptide are competitive, and when ACE binds to the tetrapeptide, it will reduce the production of the product […]; the IC50 activity of the tetrapeptide is when it is reduced by half of the original concentration. The water bath temperature was controlled at 37 °C, and the initial mass concentration of each tetrapeptide was […]. The tetrapeptide was diluted with borate buffer solution into 7 concentration gradients, and coincubated with HHL buffer for 5 min. Then, the ACE solution was added to initiate the reaction, and the reaction was terminated by the addition of HCl after 30 min of system reaction. Afterwards, the reaction was analysed on a C18 column, with HPLC detection at 228 nm and an injection volume of 10 μL. The mobile phases were water and acetonitrile at 75% and 25%, respectively, with a flow rate of 1 mL/min, and isocratic elution for 7 min (acetonitrile and water containing 0.1% trifluoroacetic acid). ACE inhibition was calculated as ACE inhibition = ((b − c) − (a − c))/(b − c) × 100% (a: peak area of hippuric acid in the experimental group; b: peak area of hippuric acid in the blank group; c: peak area of hippuric acid in the control group), and the inhibition rate was converted into IC50 values by the software graphpad prism 7.0.

Row | Molecule | IC50 [µM]
11 | N[C@@H](CO)C(=O)NCC(=O)NCC(=O)NCC(=O)O [SGGG] (H-SGGG-OH) | > 5000
12 | N[C@@H](Cc1c[nH]c2ccccc12)C(=O)N[C@@H](Cc1c[nH]c2ccccc12)C(=O)N[C@@H](CC(=O)O)C(=O)N[C@@H](Cc1c[nH]c2ccccc12)C(=O)O [WWDW] (H-WWDW-OH) | 36.8 ± 1.32
13 | N=C(N)NCCC[C@H](N)C(=O)N[C@@H](Cc1c[nH]c2ccccc12)C(=O)N[C@@H](Cc1c[nH]c2ccccc12)C(=O)N[C@@H](CC(=O)O)C(=O)O [RWWD] (H-RWWD-OH) | 129 ± 8.32
14 | N=C(N)NCCC[C@H](NC(=O)[C@@H](N)CCCNC(=N)N)C(=O)N[C@@H](Cc1ccc(O)cc1)C(=O)N[C@@H](CCC(N)=O)C(=O)O [RRYQ] (H-RRYQ-OH) | 115 ± 6.15
15 | CC(C)[C@H](NC(=O)[C@H](CCCNC(=N)N)NC(=O)[C@H](Cc1ccccc1)NC(=O)[C@@H](N)Cc1c[nH]c2ccccc12)C(=O)O [WFRV] (H-WFRV-OH) | 31.8 ± 0.83
16 | C[C@@H](O)[C@H](NC(=O)[C@H](Cc1c[nH]c2ccccc12)NC(=O)[C@@H](N)Cc1c[nH]c2ccccc12)C(=O)N[C@@H](Cc1ccc(O)cc1)C(=O)O [WWTY] (H-WWTY-OH) | 28.5 ± 0.99
17 | NC(=O)C[C@H](NC(=O)[C@H](Cc1c[nH]c2ccccc12)NC(=O)[C@@H](N)Cc1c[nH]c2ccccc12)C(=O)N[C@@H](Cc1c[nH]c2ccccc12)C(=O)O [WWNW] (H-WWNW-OH) | 26.4 ± 3.81
18 | N[C@@H](Cc1c[nH]c2ccccc12)C(=O)N[C@@H](Cc1ccccc1)C(=O)N[C@@H](CO)C(=O)N[C@@H](Cc1c[nH]c2ccccc12)C(=O)O [WFSW] (H-WFSW-OH) | 148 ± 14.3
19 | N=C(N)NCCC[C@H](NC(=O)[C@@H](N)Cc1c[nH]c2ccccc12)C(=O)N[C@@H](CCC(N)=O)C(=O)N[C@@H](Cc1ccccc1)C(=O)O [WRQF] (H-WRQF-OH) | 29.6 ± 6.75
20 | NCCCC[C@H](NC(=O)[C@H](Cc1c[nH]c2ccccc12)NC(=O)[C@H](Cc1ccc(O)cc1)NC(=O)[C@@H](N)Cc1ccc(O)cc1)C(=O)O [YYWK] (H-YYWK-OH) | 20 ± 8.19
21 | N=C(N)NCCC[C@H](NC(=O)[C@@H](N)Cc1c[nH]c2ccccc12)C(=O)N[C@@H](Cc1ccccc1)C(=O)N[C@@H](Cc1ccccc1)C(=O)O [WRFF] (H-WRFF-OH) | 141 ± 3.9
22 | NCC(=O)NCC(=O)N[C@@H](CO)C(=O)NCC(=O)O [GGSG] (H-GGSG-OH) | > 5000
